Measurements as given in patent US6911469B2, “Sulfonamide compounds and pharmaceutical use thereof” (Fujisawa Pharmaceutical Co., Ltd., priority 1997, dated 2005).

| SMILES | melting point |
| --- | --- |
| CCCCS(=O)(=O)NC(=O)c1ccc2c(=O)n(C)c(Cc3ccc(Cl)cc3Cl)nc2c1 [Example 45, 7-(1-n-butanesulfonyl-carbamoyl)-2-(2,4-dichlorobenzyl)-3-methyl-4(3H)-quinazolinone] | 244 to 246 °C |
| CCCCCS(=O)(=O)NC(=O)c1ccc2c(=O)nc(C)n(Cc3ccc(Cl)cc3Cl)c2c1 [Example 47-1, 1-(2,4-dichlorobenzyl)-2-methyl-7-(1-n-pentanesulfonylcarbamoyl)-4(1H)-quinazolinone] | 168 to 170 °C |
| Cc1nc(=O)c2ccc(C(=O)NS(=O)(=O)c3ccccc3)cc2n1Cc1ccc(Cl)cc1Cl [Example 47-2, 7-(benzenesulfonylcarbamoyl)-1-(2,4-dichlorobenzyl)-2-methyl-4(1H)-quinazolinone] | 214 to 216 °C |
| CCCCS(=O)(=O)NC(=O)c1ccc2nc(C)c(=O)n(Cc3ccc(Cl)cc3Cl)c2c1 [Example 49, 7-(1-n-butanesulfonyl-carbamoyl)-1-(2,4-dichlorobenzyl)-3-methyl-2(1H)-quinoxalinone] | 223 to 225 °C |
| CCCCS(=O)(=O)NC(=O)c1ccc2c(c1)n(Cc1ccc(Cl)cc1Cl)c(=O)c(=O)n2C [Example 50, 7-(1-n-butanesulfonyl-carbamoyl)-1-(2,4-dichlorobenzyl)-4-methyl-2,3-(1H, 4H)-quinoxalinedione] | 243 to 246 °C |
| Cc1nc2ccc(C(=O)NS(=O)(=O)c3ccccc3)cn2c1Cc1ccc(Cl)cc1Cl [Example 56, 6-(benzenesulfonylcarbamoyl)-3-(2,4-dichlorobenzyl)-2-methylimidazo[1,2-a]pyridine] | 308 to 310 °C |
| Cc1nc2ccc(C(=O)NS(=O)(=O)c3ccccc3)nc2n1Cc1ccc(-c2cccs2)cc1Cl [Example 68, 5-(benzenesulfonylcarbamoyl)-3-[2-chloro-4-(thiophen-2-yl)benzyl]-2-methyl-3H-imidazo[4,5-b]pyridine] | 225 to 226 °C |
| Cc1nc2ccc(C(=O)NS(=O)(=O)c3ccccc3)nc2n1Cc1ccc(-c2ccc(Cl)s2)cc1Cl [Example 69, 5-(benzenesulfonylcarbamoyl)-3-[2-chloro-4-(5-chlorothiophene-2-yl)benzyl]-2-methyl-3H-imidazo[4,5-b]pyridine] | 215 to 217 °C |
| C=Cc1ccc(Cn2c(C)nc3ccc(C(=O)NS(=O)(=O)c4ccccc4)nc32)c(Cl)c1 [Example 71, 5-(benzenesulfonylcarbamoyl)-3-(2-chloro-4-vinylbenzyl)-2-methyl-3H-imidazo[4,5-b]pyridine] | 174 to 175 °C |
| Cc1ccc(Cn2c(C)nc3ccc(C(=O)NS(=O)(=O)c4ccccc4)nc32)c(Cl)c1 [Example 72, 5-(benzenesulfonylcarbamoyl)-3-(2-chloro-4-methylbenzyl)-2-methyl-3H-imidazo[4,5-b]pyridine] | 213 to 215 °C |
| CCCCCc1ccc(Cn2c(C)nc3ccc(C(=O)NS(=O)(=O)c4ccccc4)nc32)c(Cl)c1 [Example 73, 5-(benzenesulfonylcarbamoyl)-3-(2-chloro-4-(n-pentyl)benzyl)-2-methyl-3H-imidazo[4,5-b]pyridine] | 174 to 175 °C |
| Cc1nc2ccc(C(=O)NS(=O)(=O)c3ccccc3)nc2n1Cc1ccc(CC(C)C)cc1Cl [Example 74, 5-(benzenesulfonylcarbamoyl)-3-(2-chloro-4-isobutylbenzyl)-2-methyl-3H-imidazo[4,5-b]pyridine] | 183 to 184 °C |
| Cc1nc2ccc(C(=O)NS(=O)(=O)c3ccccc3)nc2n1Cc1ccc(CC2CCCCC2)cc1Cl [Example 75, 5-(benzenesulfonylcarbamoyl)-3-(2-chloro-4-(cyclohexylmethyl)benzyl)-2-methyl-3H-imidazo[4,5-b]pyridine] | 170 to 171 °C |
| Cc1nc2ccc(C(=O)NS(=O)(=O)c3ccccc3)nc2n1Cc1ccc(/C=C/c2ccccc2)cc1Cl [Example 76, (E)-5-(benzenesulfonylcarbamoyl)-3-(2-chloro-4-(2-phenylethenyl)benzyl)-2-methyl-3H-imidazo[4,5-b]pyridine] | 262 to 263 °C |
| Cc1nc2ccc(C(=O)NS(=O)(=O)c3ccccc3)nc2n1Cc1ccc(OCc2ccccc2)cc1Cl [Example 77, 5-(benzenesulfonylcarbamoyl)-3-(4-benzyloxy-2-chlorobenzyl)-2-methyl-3H-imidazo[4,5-b]pyridine] | 190 to 191 °C |
| COc1ccc(Cn2c(C)nc3ccc(C(=O)NS(=O)(=O)c4ccccc4)nc32)c(Cl)c1 [Example 78, 5-(benzenesulfonylcarbamoyl)-3-(2-chloro-4-methoxybenzyl)-2-methyl-3H-imidazo[4,5-b]pyridine] | 151 to 152 °C |
| Cc1nc2ccc(C(=O)NS(=O)(=O)c3ccccc3)nc2n1Cc1ccc(OC(C)C)cc1Cl [Example 79, 5-(benzenesulfonylcarbamoyl)-3-(2-chloro-4-isopropoxybenzyl)-2-methyl-3H-imidazo[4,5-b]pyridine] | 177 to 179 °C |
| CCCCOc1ccc(Cn2c(C)nc3ccc(C(=O)NS(=O)(=O)c4ccccc4)nc32)c(Cl)c1 [Example 80, 5-(benzenesulfonylcarbamoyl)-3-(4-(n-butoxy)-2-chlorobenzyl)-2-methyl-3H-imidazo[4,5-b]pyridine] | 181 to 182 °C |
| Cc1nc2ccc(C(=O)NS(=O)(=O)c3ccccc3)nc2n1Cc1ccc(OCC2CCCCC2)cc1Cl [Example 81, 5-(benzenesulfonylcarbamoyl)-3-(2-chloro-4-((cyclohexylmethyl)oxy)benzyl)-2-methyl-3H-imidazo[4,5-b]pyridine] | 122 to 125 °C |
| Cc1nc2ccc(C(=O)NS(=O)(=O)c3ccccc3)nc2n1Cc1ccc(OCCN(C)c2ccccn2)cc1Cl [Example 82, 5-(benzenesulfonylcarbamoyl)-3-(2-chloro-4-((2-(N-methyl-N-(2-pyridinyl)amino)ethyl)oxy)benzyl)-2-methyl-3H-imidazo[4,5-b]pyridine] | 104 to 105 °C |
| CSc1ccc(Cn2c(C)nc3ccc(C(=O)NS(=O)(=O)c4ccccc4)nc32)c(Cl)c1 [Example 83, 5-(benzenesulfonylcarbamoyl)-3-(2-chloro-4-(methylthio)benzyl)-2-methyl-3H-imidazo[4,5-b]pyridine] | 165 to 166 °C |
| Cc1nc2ccc(C(=O)NS(=O)(=O)c3ccccc3)nc2n1Cc1ccc([S+](C)[O-])cc1Cl (stereo not shown) [Example 84, 5-(benzenesulfonylcarbamoyl)-3-(2-chloro-4-(methylsulfinyl)benzyl)-2-methyl-3H-imidazo[4,5-b]pyridine] | 230 to 231 °C |
| Cc1nc2ccc(C(=O)NS(=O)(=O)c3ccccc3)nc2n1Cc1ccc(C=O)cc1Cl [Example 92, 5-(benzenesulfonylcarbamoyl)-3-(2-chloro-4-formylbenzyl)-2-methyl-3H-imidazo[4,5-b]pyridine] | 253 to 255 °C |
| Cc1nc2ccc(C(=O)NS(=O)(=O)c3ccccc3)nc2n1Cc1ccc(C=C2SC(=O)NC2=O)cc1Cl [Example 93, 5-(benzenesulfonylcarbamoyl)-3-[2-chloro-4-[(2,4-dioxo-1,3-thiazolidine-5-ylidene)methyl]benzyl]-2-methyl-3H-imidazo[4,5-b]pyridine] | 271 to 274 °C |

The remaining lines, values ahead:

| melting point | SMILES |
| --- | --- |
| 192 to 194 °C | Cc1nc2ccc(C(=O)NS(=O)(=O)/C=C/c3ccccc3)nc2n1Cc1ccc(Cl)cc1Cl [Example 65-3, (E)-3-(2,4-dichlorobenzyl)-2-methyl-5-[(2-phenylethenyl)sulfonylcarbamoyl]-3H-imidazo[4,5-b]pyridine] |
| 206 to 207 °C | Cc1nc2ccc(C(=O)NS(=O)(=O)c3ccc(Cl)s3)nc2n1Cc1ccc(Cl)cc1Cl [Example 65-4, 5-((5-chlorothiophene-2-yl)sulfonylcarbamoyl)-3-(2,4-dichlorobenzyl)-2-methyl-3H-imidazo[4,5-b]pyridine] |
| 168 to 169 °C | Cc1nc2ccc(C(=O)NS(=O)(=O)c3ccc(Br)s3)nc2n1Cc1ccc(Cl)cc1Cl [Example 65-5, 5-((5-bromothiophen-2-yl)sulfonylcarbamoyl)-3-(2,4-dichlorobenzyl)-2-methyl-3H-imidazo[4,5-b]pyridine] |
| 204 to 205 °C | Cc1nc2ccc(C(=O)NS(=O)(=O)/C=C/c3ccccc3)nc2n1Cc1ccc(Br)cc1Cl [Example 66-1, (E)-3-(4-bromo-2-chlorobenzyl)-2-methyl-5-[(2-phenylethenyl)sulfonylcarbamoyl]-3H-imidazo[4,5-b]pyridine] |
| 216 to 218 °C | Cc1nc2ccc(C(=O)NS(=O)(=O)/C=C/c3ccccc3)nc2n1Cc1ccc(-c2ccccc2)cc1Cl [Example 67-2, (E)-3-(2-chloro-4-phenylbenzyl)-2-methyl-5-[(2-phenylethenyl)sulfonylcarbamoyl]-3H-imidazo[4,5-b]pyridine] |
| 210 to 212 °C | Cc1nc2ccc(C(=O)NS(=O)(=O)c3ccc(Cl)s3)nc2n1Cc1ccc(-c2ccccc2)cc1Cl [Example 67-3, 3-(2-chloro-4-phenylbenzyl)-5-[(5-chlorothiophene-2-yl)sulfonylcarbamoyl]-2-methyl-3H-imidazo[4,5-b]pyridine] |
| 205 to 207 °C | Cc1nc2ccc(C(=O)NS(=O)(=O)c3ccc(Br)s3)nc2n1Cc1ccc(-c2ccccc2)cc1Cl [Example 67-5, 5-[(5-bromothiophen-2-yl)sulfonylcarbamoyl]-3-(2-chloro-4-phenylbenzyl)-2-methyl-3H-imidazo[4,5-b]pyridine] |
| 138 to 139 °C | CCCCCS(=O)(=O)NC(=O)c1ccc2nc(C)n(Cc3ccc(CC)cc3Cl)c2n1 [Example 70-1, 3-(2-chloro-4-ethylbenzyl)-2-methyl-5-(1-pentanesulfonylcarbamoyl)-3H-imidazo[4,5-b]pyridine] |
| 167 to 168 °C | CCc1ccc(Cn2c(C)nc3ccc(C(=O)NS(=O)(=O)c4ccccc4)nc32)c(Cl)c1 [Example 70-2, 5-(benzenesulfonylcarbamoyl)-3-(2-chloro-4-ethylbenzyl)-2-methyl-3H-imidazo[4,5-b]pyridine] |
| 184 to 185 °C | CCc1ccc(Cn2c(C)nc3ccc(C(=O)NS(=O)(=O)/C=C/c4ccccc4)nc32)c(Cl)c1 [Example 70-4, (E)-3-(2-chloro-4-ethylbenzyl)-2-methyl-5-[(2-phenylethenyl)sulfonylcarbamoyl]-3H-imidazo[4,5-b]pyridine] |
